Results: publication PMC11618438 (ACS Omega, 2024)
pEC50, pIC50, pKi: −log10 of the molar value.

Legend:
MT1 [1] = molecular target: T1, MT1 (Homo sapiens, UniProt P48039); assay: cAMP accumulation assay, forskolin-stimulated HEK293 cells; type: cell-based; conditions: for pEC50: hMT1 HEK293 cells, 1 μM forskolin
MT1 [2] = molecular target: T1, MT1; assay: β-arrestin2 recruitment BRET assay in HEK293 cells; type: cell-based; conditions: for pEC50: hMT1 HEK293 cells, BRET; for effect on ß-arrestin recruitment: Figure S2C
MT1 [3] = molecular target: T1, MT1; assay: ERK activation; type: cell-based; conditions: for pEC50: hMT1 cells, 5 min stimulation
MT1 [4] = molecular target: T1, MT1; assay: 2-[125I]-iodomelatonin competition binding assay, membranes of HEK293 cells; conditions: for pKi: 2-[125I]MLT binding assay, hMT1 stably expressed in HEK293 cells; for drop in binding affinity: MT1, relative to 19c
MDA-MB-231 = assay: Cell survival by MTT assay, MDA-MB-231; type: cell-based; conditions: IC50 MLT+TAM versus IC50 compound
human ERα = molecular target: T2, human ERα (Homo sapiens, UniProt P03372); assay: cell-based
T2 sequence (P03372 1-595): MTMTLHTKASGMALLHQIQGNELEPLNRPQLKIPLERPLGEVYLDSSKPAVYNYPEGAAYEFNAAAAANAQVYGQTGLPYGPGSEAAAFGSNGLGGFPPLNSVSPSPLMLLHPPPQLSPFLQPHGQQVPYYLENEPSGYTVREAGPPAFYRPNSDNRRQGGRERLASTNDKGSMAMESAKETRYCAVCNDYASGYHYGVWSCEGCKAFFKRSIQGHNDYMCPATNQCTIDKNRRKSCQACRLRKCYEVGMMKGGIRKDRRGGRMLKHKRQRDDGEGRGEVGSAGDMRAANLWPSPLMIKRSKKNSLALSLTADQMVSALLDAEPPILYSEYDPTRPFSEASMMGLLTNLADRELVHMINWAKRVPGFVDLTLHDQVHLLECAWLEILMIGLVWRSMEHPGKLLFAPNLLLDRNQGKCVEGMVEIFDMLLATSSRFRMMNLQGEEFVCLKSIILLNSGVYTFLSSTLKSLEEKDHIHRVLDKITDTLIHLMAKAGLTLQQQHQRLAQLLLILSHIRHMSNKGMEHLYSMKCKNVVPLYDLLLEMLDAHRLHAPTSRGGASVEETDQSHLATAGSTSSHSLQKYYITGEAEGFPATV

[5] = system: human MT1 receptors expressed in CHO cells; conditions: [125I]-iodomelatonin; cited from earlier work
HT-1080 = assay: Cell survival by MTT assay, HT-1080; type: cell-based; conditions: IC50 MLT+TAM versus IC50 compound
[6] = pEC50 ± S.E.M., cAMP accumulation
[7] = pEC50 ± S.E.M., ß-arrestin recruitment

T1 sequence (P48039 whole entry): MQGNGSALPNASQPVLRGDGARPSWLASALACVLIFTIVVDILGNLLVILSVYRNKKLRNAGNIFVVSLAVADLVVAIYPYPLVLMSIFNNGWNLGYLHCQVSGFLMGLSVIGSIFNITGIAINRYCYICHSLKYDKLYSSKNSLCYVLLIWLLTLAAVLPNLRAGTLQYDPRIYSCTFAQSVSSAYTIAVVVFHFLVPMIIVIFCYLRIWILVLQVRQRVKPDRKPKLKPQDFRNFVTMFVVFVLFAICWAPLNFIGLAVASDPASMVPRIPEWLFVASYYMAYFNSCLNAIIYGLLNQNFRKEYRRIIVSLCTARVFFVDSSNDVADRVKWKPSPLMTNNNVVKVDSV

Q: With `CC/C(=C(\c1ccccc1)c1ccc(OCCN(C)CCCCCC(=O)NCCCOc2ccc3[nH]cc(CCNC(C)=O)c3c2)cc1)c1ccccc1` [16b, (Z)-N-(3-((3-(2-Acetamidoethyl)-1H-indol-5-yl)oxy)propyl)-6-((2-(4-(1,2-diphenylbut-1-en-1-yl)phenoxy)ethyl)(methyl)amino)hexanamide] as the compound, how does the pEC50 (MT1 [1]; EC50, cAMP accumulation) read?
A: Its pEC50 is 6.01.

Q: And the pEC50 (MT1 [1]; [6])?
A: Its pEC50 is 6.06.

Q: And the pEC50 (MT1 [2]; EC50, ß-arrestin recruitment)?
A: Its pEC50 is 6.00.

Q: What about the pEC50 (MT1 [2]; [7]) of the same compound?
A: Its pEC50 is 6.02.

Q: And the pEC50 (MT1 [3]; EC50, ERK activation)?
A: The pEC50 was 7.80.

Q: And the pEC50 (MT1 [3]; pEC50 ± S.E.M., ERK activation)?
A: The pEC50 was 7.86.

Q: What about the pKi (MT1 [4]; Ki) of the same compound?
A: The pKi was 7.66.

Q: And the pKi (MT1 [4]; pKi ± S.E.M.)?
A: The pKi was 7.70.

Q: With `CC/C(=C(\c1ccccc1)c1ccc(OCCN(C)C(=O)CCCCOc2ccc3[nH]cc(CCNC(C)=O)c3c2)cc1)c1ccccc1` [19a, (Z)-5-((3-(2-Acetamidoethyl)-1H-indol-5-yl)oxy)-N-(2-(4-(1,2-diphenylbut-1-en-1-yl)phenoxy)ethyl)-N-methylpentanamide] as the compound, how does the pEC50 (MT1 [1]; EC50, cAMP accumulation) read?
A: The pEC50 was less than 5.00.

Q: What about the pEC50 (MT1 [1]; [6]) of the same compound?
A: The pEC50 was 5.05.

Q: What about the “sensitization versus combined melatonin and tamoxifen treatment” value (MDA-MB-231) of the same compound?
A: Its value is 3.0 fold.

Q: And the “effect on ß-arrestin recruitment” value (MT1 [2])?
A: The value was “no effect”.

Q: And the pEC50 (MT1 [2]; [7])?
A: Its pEC50 is 6.01.

Q: What about the pIC50 (human ERα) of the same compound?
A: The pIC50 was roughly 7.00.

Q: And the “effect on ERK activation” value (MT1 [3]; cells expressing MT1)?
A: The value was “no effect”.

Q: What about the pKi (MT1 [4]; Ki) of the same compound?
A: Its pKi is less than 5.00.

Q: And the “drop in binding affinity” value (MT1 [4])?
A: The value was > 1,000 fold.

Q: What does the source list for `CC/C(=C(\c1ccccc1)c1ccc(OCCN(C)C(=O)CCCCCCOc2ccc3[nH]cc(CCNC(C)=O)c3c2)cc1)c1ccccc1` [19c, (Z)-7-((3-(2-Acetamidoethyl)-1H-indol-5-yl)oxy)-N-(2-(4-(1,2-diphenylbut-1-en-1-yl)phenoxy)ethyl)-N-methylheptanamide]?
A: right shift of cAMP EC50 compared to Ki (MT1 [1]; MT1): 2 logs; pEC50 (MT1 [1]; [6]): 6.68; pEC50 (MT1 [2]; EC50, ß-arrestin recruitment): 5.65; pEC50 (MT1 [2]; [7]): 5.97; pIC50 (human ERα): ~7.00; pEC50 (MT1 [3]; EC50, ERK activation): 6.79; pEC50 (MT1 [3]; pEC50 ± S.E.M., ERK activation): 7.21; pKi (MT1 [4]; Ki): 8.55; pKi (MT1 [4]; pKi ± S.E.M.): 8.58

Q: Which “affinity, competition binding” value [5] does the source give for `COc1ccc2[nH]cc(CCNC(C)=O)c2c1` [MLT, melatonin] here?
A: The value was 8.6 nM.

Q: With `CC/C(=C(\c1ccccc1)c1ccc(OCCN(C)C(=O)CCCCCOc2ccc3[nH]cc(CCNC(C)=O)c3c2)cc1)c1ccccc1` [compound 19b, (Z)-6-((3-(2-Acetamidoethyl)-1H-indol-5-yl)oxy)-N-(2-(4-(1,2-diphenylbut-1-en-1-yl)phenoxy)ethyl)-N-methylhexanamide] as the compound, how does the pEC50 (MT1 [1]; EC50, cAMP accumulation) read?
A: The pEC50 was 6.41.

Q: And the pEC50 (MT1 [1]; [6])?
A: The pEC50 was 6.43.

Q: And the pEC50 (MT1 [2]; EC50, ß-arrestin recruitment)?
A: Its pEC50 is 5.33.

Q: What about the pEC50 (MT1 [2]; [7]) of the same compound?
A: The pEC50 was 5.41.

Q: And the pEC50 (MT1 [3]; EC50, ERK activation)?
A: The pEC50 was 6.75.

Q: And the pEC50 (MT1 [3]; pEC50 ± S.E.M., ERK activation)?
A: The pEC50 was 6.92.

Q: What about the pKi (MT1 [4]; Ki) of the same compound?
A: The pKi was 5.50.

Q: What about the “drop in binding affinity” value (MT1 [4]) of the same compound?
A: The value was > 1,000 fold.

Q: What about the pKi (MT1 [4]; pKi ± S.E.M.) of the same compound?
A: The pKi was 5.53.

Q: For `CC/C(=C(\c1ccccc1)c1ccc(OCCN(C)CCOCCOCCOc2ccc3[nH]cc(CCNC(C)=O)c3c2)cc1)c1ccccc1` [compound 21, (Z)-N-(2-(5-(2-(2-(2-((2-(4-(1,2-Diphenylbut-1-en-1-yl)phenoxy)ethyl)(methyl)amino)ethoxy)ethoxy)ethoxy)-1H-indol-3-yl)ethyl)acetamide], which “sensitization versus combined melatonin and tamoxifen treatment” value (HT-1080) is on record?
A: The value was 3.6 fold.

Q: And the pEC50 (MT1 [1]; EC50, cAMP accumulation)?
A: Its pEC50 is 7.13.

Q: And the pEC50 (MT1 [1]; [6])?
A: Its pEC50 is 7.20.

Q: And the pEC50 (MT1 [2]; EC50, ß-arrestin recruitment)?
A: Its pEC50 is 6.71.

Q: What about the “effect on ß-arrestin recruitment” value (MT1 [2]) of the same compound?
A: The value was “clear partial effect”.

Q: What about the pEC50 (MT1 [2]; [7]) of the same compound?
A: Its pEC50 is 6.86.

Q: What about the pEC50 (MT1 [3]; EC50, ERK activation) of the same compound?
A: Its pEC50 is 7.44.

Q: What about the pEC50 (MT1 [3]; pEC50 ± S.E.M., ERK activation) of the same compound?
A: Its pEC50 is 7.55.

Q: And the pKi (MT1 [4]; Ki)?
A: Its pKi is 8.19.

Q: What about the pKi (MT1 [4]; pKi ± S.E.M.) of the same compound?
A: Its pKi is 8.21.
